According to PubChem BioAssay (NCI):
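Results reflect a 48-hour exposure of cells in 96-well plates to compound at five concentrations. GI50 = concentration required for 50% inhibition of growth. TGI: total growth inhibition.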

Assays:
Experiment in all cases: inhibition of tumour cell growth, NCI panel, 48 h
A549 NSCLC = tested on: A549 NSCLC
DLD-1 colon = tested on: DLD-1 colon
EKVX NSCLC = tested on: EKVX NSCLC
HCT-116 colon = tested on: HCT-116 colon
HT29 colon = tested on: HT29 colon
M19-MEL melanoma = tested on: M19-MEL melanoma
NCI-H23 lung = tested on: NCI-H23 lung
OVCAR-5 ovarian = tested on: OVCAR-5 ovarian
SN12C renal = tested on: SN12C renal
SW-620 colon = tested on: SW-620 colon
UO-31 renal = tested on: UO-31 renal

In the case of `O=C1CSC(C(N=Nc2ccc(Cl)cc2)c2nc3ccccc3[nH]2)=N1` (stereo unspecified), the TGI (A549 NSCLC) is reported as > 100 µM, the TGI (DLD-1 colon) is reported as > 100 µM and the TGI (EKVX NSCLC) is reported as > 100 µM. The TGI (HCT-116 colon) was > 100 µM, the TGI (HT29 colon) was > 100 µM and the TGI (M19-MEL melanoma) was > 100 µM. For the same compound, the TGI (NCI-H23 lung) was > 100 µM, the TGI (OVCAR-5 ovarian) was > 100 µM and the TGI (SN12C renal) was > 100 µM. For the same compound, the TGI (SW-620 colon) was > 100 µM and the TGI (UO-31 renal) was > 100 µM.
`CCc1c(C)c2ccc(OCC(=O)N=Nc3c(O)[nH]c4ccccc34)c(C)c2oc1=O` was tested, and the GI50 (A549 NSCLC) was > 33.3 µM, the TGI (A549 NSCLC) was > 33.3 µM and the GI50 (EKVX NSCLC) was > 33.3 µM. The TGI (EKVX NSCLC) was > 33.3 µM, the GI50 (NCI-H23 lung) was 1.13 µM and the TGI (NCI-H23 lung) was > 33.3 µM. For the same compound, the GI50 (OVCAR-5 ovarian) was > 33.3 µM, the TGI (OVCAR-5 ovarian) was > 33.3 µM and the GI50 (UO-31 renal) was > 33.3 µM. For the same compound, the TGI (UO-31 renal) was > 33.3 µM.
For `Cc1c(N=NN(C)C)cc[n+]([O-])c1C`, the TGI (A549 NSCLC) was > 100 µM, the TGI (DLD-1 colon) was > 100 µM and the TGI (EKVX NSCLC) was > 100 µM. The TGI (HCT-116 colon) was > 100 µM, the TGI (HT29 colon) was > 100 µM and the TGI (M19-MEL melanoma) was > 100 µM. The TGI (NCI-H23 lung) was > 100 µM, the TGI (OVCAR-5 ovarian) was > 100 µM and the TGI (SN12C renal) was > 100 µM. For the same compound, the TGI (SW-620 colon) was > 100 µM and the TGI (UO-31 renal) was > 100 µM.
`CC(C)[C@](O)(C(=O)OCC1=CCN2CC[C@@H](O)[C@@H]12)[C@H](C)O` was tested, and the TGI (A549 NSCLC) was > 375 µM, the TGI (DLD-1 colon) was > 375 µM and the TGI (EKVX NSCLC) was > 375 µM. The TGI (HCT-116 colon) was > 375 µM, the TGI (HT29 colon) was > 375 µM and the TGI (M19-MEL melanoma) was > 256 µM. The TGI (NCI-H23 lung) was > 375 µM, the TGI (OVCAR-5 ovarian) was > 375 µM and the TGI (SN12C renal) was > 375 µM. The TGI (SW-620 colon) was > 237 µM and the TGI (UO-31 renal) was > 375 µM.
Work on `COC(=O)C1C(O)C(C)C(O)OC1C(C)C(O)C(C)/C=C\C=C(/C)C(=O)Nc1c(C)c(OC(C)=O)c2c(c1O)C(=O)C(C)=C1OCOC(/C(C)=C/C(C)=O)=C12` (stereo unspecified) yielded a TGI (A549 NSCLC) of 35.3 µM, a TGI (DLD-1 colon) of 19.4 µM and a TGI (EKVX NSCLC) of 20.5 µM. The TGI (HCT-116 colon) was 19.9 µM, the TGI (HT29 colon) was 26.5 µM and the TGI (M19-MEL melanoma) was 26 µM. It also gave a TGI (NCI-H23 lung) of 27.8 µM, a TGI (OVCAR-5 ovarian) of 25 µM and a TGI (SN12C renal) of 21.5 µM. The TGI (SW-620 colon) was 20.4 µM and the TGI (UO-31 renal) was 25.1 µM.
`Cn1c(=O)c2nc(NCCO)cnc2n(C)c1=O` was tested, and the TGI (A549 NSCLC) was > 100 µM, the TGI (DLD-1 colon) was > 100 µM and the TGI (EKVX NSCLC) was > 100 µM. For the same compound, the TGI (HCT-116 colon) was > 100 µM, the TGI (HT29 colon) was > 100 µM and the TGI (M19-MEL melanoma) was > 100 µM. For the same compound, the TGI (NCI-H23 lung) was > 100 µM, the TGI (OVCAR-5 ovarian) was > 100 µM and the TGI (SN12C renal) was > 100 µM. The TGI (SW-620 colon) was > 100 µM and the TGI (UO-31 renal) was > 100 µM.
`O=C(c1ccccc1)c1nn(-c2ccccc2)c2nc3nc(-c4ccccc4)cc(=O)n3nc12` showed a GI50 (A549 NSCLC) of 26.5 µM, a TGI (A549 NSCLC) of 81.4 µM and a GI50 (EKVX NSCLC) of 22.2 µM. It also gave a TGI (EKVX NSCLC) of 58.2 µM, a GI50 (HCT-116 colon) of 14.6 µM and a TGI (HCT-116 colon) of 28 µM. For the same compound, the GI50 (HT29 colon) was 24.7 µM, the TGI (HT29 colon) was 64.2 µM and the GI50 (NCI-H23 lung) was 33.1 µM. The TGI (NCI-H23 lung) was > 100 µM, the GI50 (SN12C renal) was 22.7 µM and the TGI (SN12C renal) was 53.2 µM. The GI50 (SW-620 colon) was 33.1 µM, the TGI (SW-620 colon) was > 100 µM and the GI50 (UO-31 renal) was 25.7 µM. The TGI (UO-31 renal) was > 100 µM.
`Cc1cc2c(C(C)C)c(O)c(O)c(C=Nc3ccccc3)c2c(O)c1-c1c(C)cc2c(C(C)C)c(O)c(O)c(C=Nc3ccccc3)c2c1O` was tested, and the TGI (A549 NSCLC) was > 100 µM, the TGI (DLD-1 colon) was > 100 µM and the TGI (EKVX NSCLC) was > 100 µM. The TGI (HCT-116 colon) was > 100 µM, the TGI (HT29 colon) was > 100 µM and the TGI (M19-MEL melanoma) was > 100 µM. For the same compound, the TGI (OVCAR-5 ovarian) was > 100 µM, the TGI (SN12C renal) was > 100 µM and the TGI (SW-620 colon) was > 100 µM. The TGI (UO-31 renal) was > 100 µM.
